Results on 2 molecules are retold here after patent publication US9795619B2, “Pharmaceutical compositions” (priority 2012, dated 2017).

Series [1] concerns HIV. Particulars: cited from earlier work.
Series [2] is described as follows: LAP Rat PK study, SQ and IM injections (IV values given for reference). Particulars: in vivo, Sprague-Dawley rats; for Cmax / Tmax / half-life: n=3. The method, then:
Injections were made in Sprague-Dawley rats SQ and IM at 5 and 20 mg/kg doses with T1/2, Cmax, Tmax, and AUC being measured.

The nature of series [3]: LAP Dog PK study, SQ and IM injections (IV values given for reference). The note with it: in vivo, dose 5 mg/kg, Beagle dogs. The method, then: Injections were also made in Beagle dogs SQ and IM at 5 and 20 mg/kg doses with T1/2, Cmax, Tmax, and AUC measured.
In series [4] the test system is HIV. Put plainly: human protein adjusted IC90 (reference line in FIG. 1 and FIG. 2). The series is classed as cell-based.
The nature of series [5]: LAP Rat PK study, SQ and IM injections (IV values given for reference). Particulars: Sprague-Dawley, in vivo, rat (FIG. 1). Further details: species or system Sprague-Dawley rats.
Series [6] in a line: LAP Dog PK study, SQ and IM injections (IV values given for reference). Further details: species or system Beagle dogs. The note with it: in vivo.
Setting [7] is: dog, sc, SQ, dose 2.5 mg/kg, Beagle dogs, n=3.
Where [8] appears, read: dog, IM, dose 2.5 mg/kg, Beagle dogs, n=3.

As for `C=C(C)[C@@H]1CC[C@]2(C(=O)O)CC[C@]3(C)[C@H](CC[C@@H]4[C@@]5(C)CC[C@H](OC(=O)CC(C)(C)C(=O)O)C(C)(C)[C@@H]5CC[C@]43C)[C@@H]12` [Bevirimat], the “reduced HIV viral load by a mean of” value in the series on HIV [1] (patients with trough levels >=20 μg/mL and without key baseline Gag polymorphisms at Q369, V370 or T371) was 1.3 log10/mL. For the same molecule, in the series with HIV [1] (users with Gag polymorphisms at Q369, V370 or T371), the “HIV viral load reduction versus patients without Gag polymorphisms” value is “significantly lower load reductions”.
By Cmax is commonly meant the highest concentration seen after dosing. The term Tmax denotes the time at which the peak concentration occurs. In the case of `CC(C)C1=C2[C@H]3CC[C@@H]4[C@@]5(C)CC[C@H](OC(=O)CC(C)(C)C(=O)O)C(C)(C)[C@@H]5CC[C@@]4(C)[C@]3(C)CC[C@@]2([C@@H](O)CN(CCN(C)C)Cc2ccc(Cl)cc2)CC1=O` [compound of Formula I, 4-(((3aR,5aR,5bR,7aR,9S,11aR,11bR,13aS)-3a-((R)-2-((4-Chlorobenzyl)(2-(dimethylamino)ethyl)amino)-1-hydroxyethyl)-1-isopropyl-5a,5b,8,8,11a-pentamethyl-2-oxo-3,3a,4,5,5a,5b,6,7,7a,8,9,10,11,11a,11b,12,13,13a-octadecahydro-2H-cyclopenta[a]chrysen-9-yl)oxy)-2,2-dimethyl-4-oxobutanoic acid], the highest concentration (Cmax) in series [2] (IM, dose 5 mg/kg) was 100 ± 7.8 ng/mL; in series [2] (IM, dose 20 mg/kg), 178 ± 56.9 ng/mL; in series [2] (sc, SQ, dose 5 mg/kg), 170 ± 9.2 ng/mL; in series [2] (sc, SQ, dose 20 mg/kg), 285 ± 48.4 ng/mL; in series [3] (IM, n=3), 69.7 ± 7.2 ng/mL; in series [3] (sc, SQ, n=3), 59 ± 14.5 ng/mL. Besides, the figures for the Cmax in series [6] (setting [7]) and in series [6] (setting [8]) were 38 ± 11 ng/mL and 59.3 ± 23.2 ng/mL, respectively. Moreover, the Tmax came to 5.3 ± 2.3 h in series [2] (IM, dose 5 mg/kg); 8 ± 4 h in series [2] (IM, dose 20 mg/kg); 6.7 ± 2.3 h in series [2] (sc, SQ, dose 5 mg/kg); 6.7 ± 2.3 h in series [2] (sc, SQ, dose 20 mg/kg); 208 ± 55.4 h in series [3] (sc, SQ, n=3); 144 h in series [6] (setting [7]). Moreover, the Tmax in series [6] (setting [8]) was 80 ± 13.9 h; in series [6] (dog, IM, dose 5 mg/kg, Beagle dogs, n=3), 128 ± 27.7 h. Moreover, the half-life is 149 h in series [2] (IM, dose 5 mg/kg); 298 h in series [2] (IM, dose 20 mg/kg); 120 h in series [2] (sc, SQ, dose 5 mg/kg); 463 h in series [2] (sc, SQ, dose 20 mg/kg); 118 h in series [3] (IM, n=3); 127 h in series [3] (sc, SQ, n=3). For the same molecule, the half-life was 3.4 h in series [5] (read-out: T1/2 IV (converted)); 6.9 h in series [6] (Beagle, IV, dog (FIG. 2), read-out: T1/2 IV (converted)); 96 h in series [6] (dog, sc, SQ, dose 2.5 mg/kg, Beagle dogs, n=3, read-out: T1/2 (converted)); 72 h in series [6] (dog, IM, dose 2.5 mg/kg, Beagle dogs, n=3, read-out: T1/2 (converted)). The AUC(0-t) in series [2] (IM, dose 5 mg/kg, t printed as '= days' (no number)) worked out at 7700 ng·h/mL; in series [2] (IM, dose 20 mg/kg, t = 42 days), 24900 ng·h/mL; in series [2] (sc, SQ, dose 5 mg/kg, t = 24 days), 8000 ng·h/mL; in series [2] (sc, SQ, dose 20 mg/kg, t = 57 days), 23900 ng·h/mL; in series [3] (IM, t = 36 days), 16200 ng·h/mL; in series [3] (sc, SQ, t = 40 days) it was 17400 ng·h/mL. Moreover, the AUC(0-t) in series [5] (read-out: AUC0-24 IV) amounted to 2960 ng·h/mL; in series [6] (Beagle, IV, dog (FIG. 2), read-out: AUC0-24 IV), 4150 ng·h/mL; in series [6] (dog, sc, SQ, dose 2.5 mg/kg, Beagle dogs, t = 22 days, read-out: AUC0-t), 7900 ng·h/mL; in series [6] (dog, IM, dose 2.5 mg/kg, Beagle dogs, t = 17 days, read-out: AUC0-t), 8600 ng·h/mL. Besides, in the series on HIV [4], the “human protein adjusted IC90” value is 4.31 ng/mL.
